Measured values reported in US20180105492A1, “COMPOUNDS DERIVED FROM 3-ALKYLAMINE-1H-INDOLYL ACRYLATE AND THEIR USE IN THE TREATMENT OF NEURODEGENERATIVE DISEASES” (FUNDACION PARA LA INVESTIGACION BIOMEDICA DEL HOSPITAL …, priority 2014, published 2018).

Key:
[1] = system: Nrf2 transcription factor (Nrf2-ARE); assay: Nrf2-ARE induction, luciferase activity in AREc32 (MCF7 cells stably transfected with ARE-LUC); assay type: cell-based; conditions: Homo sapiens, 24 h, basal = 1, read-out: Relative Luciferase activity (response versus basal)
Procedure: For the study of Nrf2 transcription factor, the cellular line AREC32 was used, which is characterized for being stably transfected with the reporter gene of Luciferase linked to the ARE sequence. In the presence electrophilic compounds or oxidative stress, Nrf2 factor binds to ARE sequences, activating luciferase expression and producing a proportional quantity of luciferase. The AREc32 cells were cultured in DMEM media with glutamax, supplemented with 10% fetal bovine serum (FBS), 1% penicillin-streptomycin and 1.6% geneticine (G418) (obtained from GIBCO, Madrid, Spain). Cells were cultured in 75 cm flasks with 11 mL of specific media, incubated at 37° C. and 5% of CO2. Cells were passed every 4-6 days (1:4), whenever the confluence reached 80%. For the experiments, cells were cultured in transparent surface 96 well plates at a density of […] with 100 μL/well. After 24 h in culture, cells were treated with the compounds at different concentrations (1, 10, 30 and 60 μM) during 24 h at 37° C. and 5% CO2. In every experiment it was also included a basal variable, a variable with 10 μM tert-butyl hydroquinone (TBHQ) (positive control) and the variables of the study in a final volume of 100 μL. After an incubation of 24 h with the compounds, luciferase activity was measured by bioluminescence using the commercial kit “Luciferase assay system” (Promega E1500). For that, treatments were removed and cells were washed with 100 μL of PBS 0.1 M. After washing, 20 μL of “lysis buffer” reactive was added to each well. 10 minutes later, luminescence was measured using the multi-well reader FluoStar optima (BMG labtech).
Luminescence was measured in arbitrary units and is directly proportional to luciferase quantity in the wells, which is also directly proportional to Nrf2 transcription factor induction by the specific compound at the established concentration. Measurements were made in duplicate and values were normalized to the basal luminescence value, considered as 1.
The results of Nrf2 induction obtained for the compounds 1 to 16 are shown in Table 1 and are expressed as induction, considering 1 the non-treated cells.

[2] = system: Nrf2 transcription factor (Nrf2-ARE); assay: as above; assay type: cell-based; conditions: Homo sapiens, 24 h, basal = 1, read-out: Relative Luciferase activity (response versus basal); remark: listed apart in the source

SMILES | fold induction at 10 µM ([1]; 10 μM) | fold induction at 30 µM ([1]; 30 μM) | fold induction at 60 µM ([1]; 60 μM) | fold induction at 1 µM ([1]; 1 μM) | fold induction at 3 µM ([2]; 3 μM) | fold induction at 6 µM ([2]; 6 μM)
CCOC(=O)C=Cc1ccccc1 [Ethyl Cinnamate, reference compound] | 1.46 ± 0.1 | 1.4 ± 0.1 | 1.55 ± 0.1 | – | – | –
CC(C)(C)c1cc(O)ccc1O [TBHQ, tert-butyl hydroquinone] | – | – | – | 2.19 ± 0.1 | 3.83 ± 0.3 | 6.1 ± 0.1
